# Residue numbers refer to the chain shown, from its start.
# Assays:
# [1] = target: T1, Erwinia sp. (DSM 97-934) creatinase variant CTsd2, N130D, M203V, I278T, F395L, SEQ ID NO: 20 (Shinella sumterensis, UniProt A0AA50CTE0, F395L/I278T/M203V/N130D); test: Km determination of creatinase variant with creatine (coupled enzymatic assay); type: biochemical; conditions: in words, CTsd2 vs wild type Erwinia creatinase
# T1 construct: variant CTsd2
# T1 sequence (A0AA50CTE0 1-404 N130D/M203V/I278T/F395L): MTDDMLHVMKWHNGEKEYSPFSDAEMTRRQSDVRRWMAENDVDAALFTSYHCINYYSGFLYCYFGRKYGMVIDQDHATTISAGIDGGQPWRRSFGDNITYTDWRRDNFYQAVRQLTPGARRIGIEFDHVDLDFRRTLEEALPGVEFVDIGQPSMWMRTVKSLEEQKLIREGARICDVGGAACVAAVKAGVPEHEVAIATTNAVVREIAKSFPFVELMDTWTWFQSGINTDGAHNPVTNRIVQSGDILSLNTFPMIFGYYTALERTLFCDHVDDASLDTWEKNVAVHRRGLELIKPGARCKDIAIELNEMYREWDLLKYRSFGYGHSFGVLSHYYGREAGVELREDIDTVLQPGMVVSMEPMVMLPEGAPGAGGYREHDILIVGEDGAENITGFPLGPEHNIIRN
# Protocol: (§1) The activity assay for creatinase and its variants was performed by using creatine as substrate and a coupled enzymatic reaction according to Guder, W. G., et al., J Clin Chem Clin Biochem 24 (1986) 889-902.
# (§2) The reaction mixture was set up by combining the following reagents:
# (§3) The assay for creatinase was carried out at 25° C. and at the wavelength of 546 nm for 10 min. ΔE was calculated from the measurement points of 6 to 10 min.
# (§4) For KM determination, creatinase activity was determined according to the assay procedure described in Example 3 using six different concentrations of creatine substrate: 90 mM, 45 mM, 22.5 mM, 11.3 mM, 5.6 miM and 2.8 mM.
# [2] = target: T2, Erwinia sp. (DSM 97-934) creatinase variant CTsd7, F59W, N130D, M203V, I278T, F395L, SEQ ID NO: 22 (Shinella sumterensis, UniProt A0AA50CTE0, F395L/F59W/I278T/M203V/N130D); test: as above; type: biochemical; conditions: in words, CTsd7 vs wild type Erwinia creatinase
# T2 construct: variant CTsd7
# T2 sequence (A0AA50CTE0 1-404 F59W/N130D/M203V/I278T/F395L): T1 sequence (A0AA50CTE0 1-404 N130D/M203V/I278T/F395L) with F59W
# Protocol: as §1, §2, §3, §4
# [3] = system: creatinase from Pseudomonas putida; conditions: in words; cited from earlier work
structure (smiles),measurement,setting,value
CN(CC(=O)O)C(=N)N [creatine],Km value compared to wild type,[1],much lower
same,Km value compared to wild type,[2],much lower
same,Km value,[3],rather high

# — patent US6958231B2, “Variants of Erwinia-type creatinase” (Roche Diagnostics Operations, Inc., priority 2001, dated 2005)
